Assay results published in patent US11191850B2, “Molecular probes for detection and imaging of pancreatic cancer” (Portland State University, priority 2016, dated 2021).
Entries after “also recorded” stand apart in the source; their conditions may differ. Where two headings read alike, the source gives them in different places.

What was measured:
[1] = UV-Vis absorption and fluorescence spectroscopy; type: physicochemical; set-up: Brightness: unit not given here; conditions: for pH and solvent sensitivity of UV and fluorescence spectra: 10-15 μM, aqueous 10% DMSO with HCl, NaOH or pH 7.4 buffer, various solvents; for Quantum yield / λmax em / Brightness / Stokes shift: pH 7.4 buffer; for Extinction coefficient / λmax abs: pH 7.4 phosphate buffer, 10% DMSO
Description: UV-Vis absorption and fluorescence spectroscopy. UV-Vis spectra were collected with a Cary 50 UV-Vis spectrophotometer at room temperature, using a 1-cm quartz cuvette. Fluorescence spectra were collected on a Cary Eclipse fluorescence spectrophotometer (Agilent Technologies). All absorbance spectra were reference corrected. Fluorescence spectra were corrected for the wavelength dependent response of the R928 photomultiplier tube using a manufacturer generated correction file. Quantum yields are reported as the average of multiple measurements using multiple references. Excitation emission matrices (EEMs) were collected over various spectral regions, using 5-nm step sizes for emission and 10-nm step sizes for excitation. The band pass for excitation and emission was 5 to 10 nm.
Probes 1-13 were screened for pH and solvent sensitivity. Solvent sensitivity or dependence is at least partially attributable to differences in the equilibria between tautomeric forms of the compounds in the various solvents evaluated. The fluorophore concentrations ranged from 10-15 μM. Aqueous solutions contained 10% DMSO and 12.5 mM HCl, 12.5 mM NaOH, or pH 7.4 phosphate buffer.

[2] = test system: Capan-1 cells; assay: Cell viability by CellTiter-Blue assay; type: cell-based, human; conditions: Capan-1, 24 h incubation, read-out: IC50 (cytotoxicity, cell viability)
Protocol: (§1) Cell culture. The human PDAC cell line Capan-1 was obtained from Dr. Rosalie Sears' laboratory and maintained in RPMI medium (Gibco) in a humid atmosphere at 37° C. with 5% CO2. All media were supplemented with 10% (v/v) fetal bovine serum (FBS), and 1% (v/v) penicillin/streptomycin. The cell viability was determined by Cell Titer-Blue® assay (Promega Corporation). Monolayers of 10^4 Capan-1 cells were seeded in triplicate in 96 well plates and incubated with decreasing concentration from 100 μM of each compound in growth media containing 10% FBS. After 24 h incubation time, 20 μL of CellTiter-Blue® reagent was added into each well, and culture cells were incubated for additional 2 h. Fluorescence intensity in each well was recorded at 560/590 nm in a SpectraMax® M5 Microplate Reader (Molecular Devices, LLC). The half maximal inhibitory concentration (IC50) of these three compounds were determined from interpolating values in the graph (% cell viability vs. fluorophore concentration). For comparison of cellular uptake rate in Capan-1 cells, absorbance of media was measured as background, and absorbance of supernatant was obtained to determine the cellular uptake by using absorbance of 10 μM fluorophore in cell free media as standard reference.
In vitro cell viability was assessed for compounds 2, 12 and 13 in a representative PDAC cell line, Capan-1. […]

[3] = test system: Capan-1 cells; assay: Subcellular localization by live cell imaging with organelle trackers; type: cell-based, human; conditions: Capan-1, 0.5 μM, 1 h incubation
Protocol: In vitro live cell imaging. Monolayers of 10^4 Capan-1 cells were seeded in triplicate in 8 well plates and incubated for 24 h in growth media containing 10% FBS and allowed to attach. For subcellular colocalization experiments, media was extracted and cells were washed with PBS, and phenol red-free growth medium was added to each well. Organelle trackers were added to each well, and incubated with the compound (final concentration 0.5 μM) of interest for 1 h. Cells were then washed with PBS and then fixed with 2% paraformaldehyde (PFA). Fluorescence microscopy was carried out using a Zeiss inverted microscope with an Axioscan fluorescence camera for imaging. Final concentration of organelle trackers used in this experiments, DAPI (4,6-diamidino-2-phenylindole) 0.5 μM, MitoTracker® Green (benzoxazolium 2-[3-[5,6-dichloro-1,3-bis[[4-(chloromethyl)-phenyl]methyl]-1,3-dihydro-2H-benzimidazol-2-ylidene]-1-propenyl]-3-methyl-chloride 201860-17-5v, ThermoFisher Scientific) 0.5 μM, and ER-Tracker™ Green (BODIPY® FL dye and glibenclamide; ThermoFisher Scientific) 1 μM.
The subcellular localization of 2, 12 and 13 was investigated in Capan-1 cells after 1 h incubation time. […] FIGS. 6A, 7A, and 8A show the red fluorescence of the three compounds, respectively, as well as blue fluorescence with DAPI (4,6-diamidino-2-phenylindole) FIGS. 6C, 7C, 8C) and green fluorescence with organelle-specific fluorescent probes—ER-Tracker™ Green (BODIPY® FL dye and glibenclamide; ThermoFisher Scientific) (FIGS. 6E, 7E, 8E) and MitoTracker® Green (benzoxazolium 2-[3-[5,6-dichloro-1,3-bis[[4-(chloromethyl)-phenyl]methyl]-1,3-dihydro-2H-benzimidazol-2-ylidene]-1-propenyl]-3-methyl-chloride201860-17-5v; ThermoFisher Scientific) (FIGS. 6G, 7G, 8G). Also shown are composite overlays of (i) phase contrast+compound fluorescence (FIGS. 6B, 7B, 8B), (ii) DAPI+compound fluorescence (FIGS. 6D, 7D, 8D), (iii) DAPI+ER-Tracker™ Green+compound fluorescence (FIGS. 6F, 7F, 8F), and (iv) DAPI+MitoTracker® Green+compound fluorescence (FIGS. 6H, 7H, 8H).

[4] = test system: PDAC tumor tissue; assay: Intraoperative fluorescence imaging and ex vivo microscopy in PDAC tumor bearing mice; set-up: species or system mouse; conditions: 100 nmol systemic, n=5 PDAC mice, monitored over 1.5 h
Protocol: Systemic administration of fluorescent compounds. […] Fluorophores were diluted in PBS.
In vivo biodistribution imaging.
Ex vivo fluorescence microscopy, pathology, and immunofluorescence staining. Resected pancreas tissue from compound 12 in vivo biodistribution studies with PDAC tumor bearing mice was fixed with 2% PFA for 12 h, flash frozen in optimal cutting temperature (OCT) compound with liquid nitrogen, and stored at −80° C. Cryosections were cut at 10 μm onto Superfrost Plus slides (Fisherbrand, Fisher Scientific). Slides were mounted with Fluoromount-G (Southern Biotech, Birmingham, Ala.) and coverslipped. […] Images were acquired on an Axio Observer inverted fluorescence microscope (Zeiss, Thornwood, N.Y.) at 10, 20, or 40× magnification. […] Color images were collected using an Axiocam 105 camera (Zeiss) and fluorescence images were collected using an Axiocam 506 camera (Zeiss) where a 605±35 nm or 525±25 nm bandpass emission filter was used for compound 12 or Atto 488 fluorescence image collection, respectively.
Compound 12 was systemically administered to n=5 genetically modified PDAC mice. Pancreas specific fluorescence was monitored over 1.5 h. […] FIGS. 12B and 12C show real-time intraoperative fluorescence imaging of compound 12 in the PDAC mice. […]

[5] = test system: pancreas tissue; assay: Ex vivo staining of pancreas tissue from healthy and PDAC mice; set-up: species or system mouse
Description: Thus 12 enabled ex vivo staining to distinguish the features of healthy and PDAC tissue.

[6] = test system: healthy CD-1 mice; assay: In vivo biodistribution imaging after systemic administration; conditions: for clearance route and rate: 100 nmol i.v. (MB 120 nmol); for organ accumulation (in vivo biodistribution): 100 nmol i.v., 4 h distribution phase; for pancreas penetration / specificity: normal pancreas, systemic administration
Protocol: (§2) Animals. Approval for the use of all animals in this study was obtained from the Institutional Animal Care and Use Committee (IACUC) at Oregon Health and Science University (OHSU). Male CD-1 mice weighing 22-24 g were purchased from Charles River Laboratories (Wilmington, MA). […] All animals were placed on 5V75 chlorophyll free diet from TestDiet (St. Louis, Mo.) 1 week prior to any imaging studies. Prior to surgery, mice were anaesthetized with 100 mg/kg ketamine and 10 mg/kg xylazine (Patterson Veterinary, Devens, Mass.). The peritoneal cavity was surgically exposed by removal of overlaying skin and muscle tissue to image fluorophore biodistribution following intravenous injection.
(§3) Intraoperative fluorescence imaging system. In vivo murine biodistribution images and macroscopic images of resected tissues were acquired using a custom-built small animal imaging system capable of real time color and fluorescence imaging. The imaging system consists of a QImaging EXi Blue monochrome camera (Surrey, British Columbia, Calif.) for fluorescence detection with a removable Bayer filter for collecting co-registered color and fluorescence images. A PhotoFluor II light source (89 North, Burlington, Vt.) was focused onto the surgical field through a liquid light guide and used unfiltered for white light illumination. […] All filters were obtained from Chroma technology (Bellows Falls, Vt.). Camera exposure times ranged from 50 to 200 ms for fluorescence image collection.
(§4) Systemic administration of fluorescent compounds. […] Fluorophores were diluted in PBS. For comparison with previous studies, 120 nmol Methylene Blue was injected systemically. Mice were administered blank PBS for control images (n=3 mice per group, 5 groups).
(§5) In vivo biodistribution imaging. […] The peritoneal cavity was exposed and images were collected so that the bladder, adipose tissue, intestine, kidney, liver, muscle, pancreas, spleen, and stomach were visible within the field of view. For initial biodistribution studies images were collected immediately after injection and at 5, 15, 30, 60, 120, and 240 min following injection. […] Vehicle injected control animals were imaged on the same time course as fluorophore injected animals for initial testing or immediately following injection only for studies involving MB or PDAC tumor bearing mice to assess tissue autofluorescence for comparison to injected animals.
(§6) Fluorophore biodistribution kinetics were measured using region of interest analysis on images collected of the peritoneal cavity. Mean fluorescence intensities in each organ or tissue type were measured from images collected at each time point. All intensities were normalized to the muscle intensity at that time point by dividing by the measured muscle intensity. Using the normalized fluorescence intensities for each organ or tissue type, mean intensities were calculated for each group.
(§7) Upon completion of initial biodistribution studies, animals were euthanized and their organs were resected.

[7] = test system: healthy CD-1 mice; conditions: mouse, in vivo, iv
Protocol: as §2, §3, §4, §5, §6, §7

[8] = test system: Capan-1 cells; assay: In vitro time-dependent fluorophore uptake; type: cell-based, human; conditions: Capan-1, 10 μM
Protocol: as §1
In vitro time-dependent fluorophore uptake was also investigated in Capan-1 cells. […]

SMILES	pH and solvent sensitivity of UV and fluorescence spectra [1]	Extinction coefficient ([1]; methyl ether derivatives)	IC50 [2] [µM]	site of intracellular localization [3]	clearance route and rate [6]	organ accumulation (in vivo biodistribution) [6]	pancreas penetration / specificity [6]	fluorophore uptake within 30 min of application (ranking) [8]	other results
COC(=O)c1ccccc1C1=c2cc3c4c(c2Oc2c1ccc1cccc(OC)c21)CCC[N+]=4CCC3 [Compound 12, 15-methoxy-9-(2-(methoxycarbonyl)phenyl)-1,2,3,5,6,7-hexahydrobenzo[7,8]chromeno[2,3-f]pyrido[3,2,1-ij]quinolin-4-ium chloride]	insensitive to variations in pH or solvent	17764 M⁻¹ cm⁻¹	17.8	extensive accumulation in the mitochondria	both renal and hepatic clearance; also recorded: cleared more slowly than compound 2; also recorded: greater hepatic excretion rate	accumulated in the kidney, pancreas, and intestine	improved pancreas specificity	–	Quantum yield ([1]; excited at 480 nm): 11.38%; λmax em ([1]; excited at 480 nm): 622 nm; Brightness ([1]; methyl ether derivatives): 2022; Stokes shift ([1]; methyl ether derivatives): 40 nm; λmax abs ([1]; methyl ether derivatives): 582 nm; accumulation in PDAC tumor tissue vs surrounding tissue [4]: significantly higher than in the surrounding healthy tissue; also recorded: significantly higher than in the surrounding tissues and specific for the malignant cells; ex vivo staining localization, cancerous (PDAC) tissue ([5]; PDAC mouse pancreas): localized in the PDAC-associated ductal epithelial cells; ex vivo staining localization, healthy mouse pancreas tissue ([5]; healthy mouse pancreas): uptake of 12 in its abundant acinar cell population; fluorescence SBR in the pancreas compared to surrounding organs ([6]; 4-h time point): highest and most persistent fluorescence SBR in the pancreas; uptake in normal pancreas tissue relative to MB ([6]; 12 100 nmol vs MB 120 nmol, i.v.): 4 fold
CN(C)c1ccc2nc3ccc(=[N+](C)C)cc-3sc2c1 [MB, methylene blue, reference compound]	–	–	–	–	–	–	poor penetration into normal pancreas tissue; also recorded: diminished pancreas accumulation	–	clearance route and rate [7]: preferentially and rapidly cleared through the renal system
COC(=O)c1ccccc1-c1c2ccc(=O)cc-2oc2c1ccc1cccc(OC)c12 [Compound 2]	not affected by either solvent changes or by solution pH values above 2	15,610 M^−1 · cm^−1	–	within vesicular structures	significant renal clearance; also recorded: faster renal clearance than compounds 12 and 13	preferentially accumulated in the pancreas, intestine and bladder	improved pancreas specificity	the lowest	–
COC(=O)c1ccccc1C1=c2cc3c4c(c2Oc2c1ccc1cccc(N)c21)CCC[N+]=4CCC3 [Compound 13, 15-amino-9-(2-(methoxycarbonyl)phenyl)-1,2,3,5,6,7-hexahydrobenzo[7,8]chromeno[2,3-f]pyrido[3,2,1-ij]quinolin-4-ium chloride]	not pH dependent, but were modestly solvent sensitive	–	26.1	extensive accumulation in the mitochondria	cleared more slowly than compound 2	accumulated largely in the kidneys	diminished pancreas accumulation	greatest fluorophore uptake	Quantum yield ([1]; excited at 630 nm): 0.66%; λmax em ([1]; excited at 630 nm): 740 nm; Brightness ([1]; seminaphthorhodamines): 85; Stokes shift ([1]; seminaphthorhodamines): 139 nm; Extinction coefficient ([1]; seminaphthorhodamines): 12808 M⁻¹ cm⁻¹; λmax abs ([1]; seminaphthorhodamines): 601 nm
